From US11459586B2, “Methods for increasing efficiency of nuclease-mediated gene editing in stem cells” (President and Fellows of Harvard College, priority 2016, dated 2022)

Tested on: human iPSC
Assay: mThy1 gene targeting in hiPSC lentivirally overexpressing anti-apoptotic genes (EGFP+ vs EGFP- subsets)
Assay type: cell-based
Settings: lentiviral overexpression
Text: FIGS. 3A-D. Overexpression of anti-apoptotic factors increases gene targeting rates in human iPSC, both for HR-mediated gene replacement and NHEJ-mediated gene excision. FIG. 3A. Mouse Thy1 gene targeting scheme. Two Crispr sgRNAs target human THY1 either within intron 1 (Left) or after the polyadenylation site (Right). The mouse Thy1 targeting vector plasmid contains mThy1 coding exons 2 and 3, flanked by hThy1 homology arms outside the sgRNA sites—coding exon 1 (which encodes the signal peptide) is retained but the sgRNA sites are disrupted. FIG. 3B. Plain human iPSC were infected with lentivirus that constitutively expresses EGFP together with an anti-apoptotic gene separated by an IRES. Three days after infection, each culture was nucleofected with plasmids encoding the mThy1 targeting vector, Cas9 nuclease, and Thy1 Left, Right, both, or no sgRNAs (pUC19). Five days later, cells were analyzed by flow cytometry. FIG. 3C. Representative FACS plots gated on live single cells: iPSC from each transfected culture were gated based on EGFP expression and the percentage of cells within those subsets that have gained mThy1 expression and/or lost hThy1 expression are indicated. […]
Subsequently, we determined whether rescue by these anti-apoptotic genes would result in higher gene editing frequencies in hiPSC. […]

Bcl-2: B cell lymphoma 2 protein, anti-apoptotic, overexpressed from lentivirus or Cas9 plasmid
frequency of NHEJ-mediated hThy1 homozygous gene deletions (both Thy1 sgRNAs): increased
frequency of HR-mediated mThy1 homozygous gene replacements (one sgRNA): dramatic increase
